Where two headings read alike, the source gives them in different places.
Tests used:
DHFR-TS = DHFR-TS (Leishmania major, UniProt P07382); assay type: binding; conditions: for fold change: LMJF.06.0860 DIH[…]-T[…], vehicle control = 1
[1] = system: glutamate 5′-kinase (LmjF.26.2710); assay: Multitargeted bead mixture competition; assay type: binding, Leishmania; conditions: for fold change vs vehicle control / fold change: protein LMJF.26.2710 GLUTAMATE 5-KINASE, PUTATIVE; for fold change: vehicle control = 1
TS = target: T1, TS (Homo sapiens, UniProt P04818); assay: Multitargeted bead mixture competition, HeLa cell extract; assay type: binding
T1 construct: endogenous in cells; host or cells: HeLa cell extract

[2] = target: GLYCERALDEHYDE 3-PHOSPHATE DEHYDROGENASE, GLYCOSOM (TB427.06.4300) (Trypanosoma brucei brucei, UniProt P22512); assay: Multitargeted bead mixture competition; assay type: binding, T. brucei; conditions: for fold change / fold change - vehicle control: protein TB427.06.4300 GLYCERALDEHYDE 3-PHOSPHATE DEHYDROGENASE, GLYCOSOMAL; for fold change: vehicle control = 1
[3] = system: CHOLINE KINASE (TB427TMP.18.0017); assay: Multitargeted bead mixture competition; assay type: binding, T. brucei; conditions: for fold change vs vehicle control / fold change - vehicle control: protein TB427TMP.18.0017 CHOLINE KINASE; for fold change vs vehicle control: vehicle control = 1
[4] = target: T2, HeLa cell extract proteins (Homo sapiens, UniProt P00367); assay type: binding
T2 construct: endogenous in cells; host or cells: HeLa cell extract
T2 sequence (P00367 54-558): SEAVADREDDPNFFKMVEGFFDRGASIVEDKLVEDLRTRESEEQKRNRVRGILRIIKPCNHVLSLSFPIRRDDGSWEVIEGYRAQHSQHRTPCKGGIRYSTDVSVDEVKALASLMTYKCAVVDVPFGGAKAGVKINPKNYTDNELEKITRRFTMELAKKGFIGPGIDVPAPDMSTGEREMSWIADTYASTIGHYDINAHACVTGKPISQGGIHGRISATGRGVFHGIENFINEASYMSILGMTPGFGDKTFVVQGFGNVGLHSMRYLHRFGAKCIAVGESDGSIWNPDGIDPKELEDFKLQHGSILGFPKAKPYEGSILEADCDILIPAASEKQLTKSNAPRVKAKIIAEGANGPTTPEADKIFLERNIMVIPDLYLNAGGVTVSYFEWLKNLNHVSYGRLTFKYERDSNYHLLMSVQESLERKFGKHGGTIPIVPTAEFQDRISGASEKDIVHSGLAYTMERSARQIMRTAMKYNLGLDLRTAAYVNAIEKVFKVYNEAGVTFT

[5] = target: T3, HeLa cell extract proteins (Homo sapiens, UniProt P07355); assay type: binding
T3 construct: endogenous in cells; host or cells: HeLa cell extract

[6] = target: T4, HeLa cell extract proteins (Homo sapiens, UniProt Q99720); assay type: binding
T4 construct: endogenous in cells; host or cells: HeLa cell extract
T4 sequence (Q99720 whole entry): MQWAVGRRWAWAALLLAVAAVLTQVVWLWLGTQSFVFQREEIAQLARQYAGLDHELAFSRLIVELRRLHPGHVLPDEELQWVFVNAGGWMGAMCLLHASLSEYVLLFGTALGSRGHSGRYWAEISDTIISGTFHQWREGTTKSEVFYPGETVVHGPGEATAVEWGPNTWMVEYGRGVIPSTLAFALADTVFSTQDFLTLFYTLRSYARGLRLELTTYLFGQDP

[7] = target: T5, HeLa cell extract proteins (Homo sapiens, UniProt P60900); assay type: binding
T5 construct: endogenous in cells; host or cells: HeLa cell extract
T5 sequence (P60900 whole entry): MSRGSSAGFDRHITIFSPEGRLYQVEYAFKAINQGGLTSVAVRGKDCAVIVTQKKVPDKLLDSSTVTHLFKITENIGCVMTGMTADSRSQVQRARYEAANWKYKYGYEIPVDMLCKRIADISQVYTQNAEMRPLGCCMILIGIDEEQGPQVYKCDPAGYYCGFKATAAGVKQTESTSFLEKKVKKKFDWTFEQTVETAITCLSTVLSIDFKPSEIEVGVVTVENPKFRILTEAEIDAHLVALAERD

[8] = target: T6, HeLa cell extract proteins (Homo sapiens, UniProt P78527); assay type: binding
T6 construct: endogenous in cells; host or cells: HeLa cell extract
T6 sequence (P78527 whole entry): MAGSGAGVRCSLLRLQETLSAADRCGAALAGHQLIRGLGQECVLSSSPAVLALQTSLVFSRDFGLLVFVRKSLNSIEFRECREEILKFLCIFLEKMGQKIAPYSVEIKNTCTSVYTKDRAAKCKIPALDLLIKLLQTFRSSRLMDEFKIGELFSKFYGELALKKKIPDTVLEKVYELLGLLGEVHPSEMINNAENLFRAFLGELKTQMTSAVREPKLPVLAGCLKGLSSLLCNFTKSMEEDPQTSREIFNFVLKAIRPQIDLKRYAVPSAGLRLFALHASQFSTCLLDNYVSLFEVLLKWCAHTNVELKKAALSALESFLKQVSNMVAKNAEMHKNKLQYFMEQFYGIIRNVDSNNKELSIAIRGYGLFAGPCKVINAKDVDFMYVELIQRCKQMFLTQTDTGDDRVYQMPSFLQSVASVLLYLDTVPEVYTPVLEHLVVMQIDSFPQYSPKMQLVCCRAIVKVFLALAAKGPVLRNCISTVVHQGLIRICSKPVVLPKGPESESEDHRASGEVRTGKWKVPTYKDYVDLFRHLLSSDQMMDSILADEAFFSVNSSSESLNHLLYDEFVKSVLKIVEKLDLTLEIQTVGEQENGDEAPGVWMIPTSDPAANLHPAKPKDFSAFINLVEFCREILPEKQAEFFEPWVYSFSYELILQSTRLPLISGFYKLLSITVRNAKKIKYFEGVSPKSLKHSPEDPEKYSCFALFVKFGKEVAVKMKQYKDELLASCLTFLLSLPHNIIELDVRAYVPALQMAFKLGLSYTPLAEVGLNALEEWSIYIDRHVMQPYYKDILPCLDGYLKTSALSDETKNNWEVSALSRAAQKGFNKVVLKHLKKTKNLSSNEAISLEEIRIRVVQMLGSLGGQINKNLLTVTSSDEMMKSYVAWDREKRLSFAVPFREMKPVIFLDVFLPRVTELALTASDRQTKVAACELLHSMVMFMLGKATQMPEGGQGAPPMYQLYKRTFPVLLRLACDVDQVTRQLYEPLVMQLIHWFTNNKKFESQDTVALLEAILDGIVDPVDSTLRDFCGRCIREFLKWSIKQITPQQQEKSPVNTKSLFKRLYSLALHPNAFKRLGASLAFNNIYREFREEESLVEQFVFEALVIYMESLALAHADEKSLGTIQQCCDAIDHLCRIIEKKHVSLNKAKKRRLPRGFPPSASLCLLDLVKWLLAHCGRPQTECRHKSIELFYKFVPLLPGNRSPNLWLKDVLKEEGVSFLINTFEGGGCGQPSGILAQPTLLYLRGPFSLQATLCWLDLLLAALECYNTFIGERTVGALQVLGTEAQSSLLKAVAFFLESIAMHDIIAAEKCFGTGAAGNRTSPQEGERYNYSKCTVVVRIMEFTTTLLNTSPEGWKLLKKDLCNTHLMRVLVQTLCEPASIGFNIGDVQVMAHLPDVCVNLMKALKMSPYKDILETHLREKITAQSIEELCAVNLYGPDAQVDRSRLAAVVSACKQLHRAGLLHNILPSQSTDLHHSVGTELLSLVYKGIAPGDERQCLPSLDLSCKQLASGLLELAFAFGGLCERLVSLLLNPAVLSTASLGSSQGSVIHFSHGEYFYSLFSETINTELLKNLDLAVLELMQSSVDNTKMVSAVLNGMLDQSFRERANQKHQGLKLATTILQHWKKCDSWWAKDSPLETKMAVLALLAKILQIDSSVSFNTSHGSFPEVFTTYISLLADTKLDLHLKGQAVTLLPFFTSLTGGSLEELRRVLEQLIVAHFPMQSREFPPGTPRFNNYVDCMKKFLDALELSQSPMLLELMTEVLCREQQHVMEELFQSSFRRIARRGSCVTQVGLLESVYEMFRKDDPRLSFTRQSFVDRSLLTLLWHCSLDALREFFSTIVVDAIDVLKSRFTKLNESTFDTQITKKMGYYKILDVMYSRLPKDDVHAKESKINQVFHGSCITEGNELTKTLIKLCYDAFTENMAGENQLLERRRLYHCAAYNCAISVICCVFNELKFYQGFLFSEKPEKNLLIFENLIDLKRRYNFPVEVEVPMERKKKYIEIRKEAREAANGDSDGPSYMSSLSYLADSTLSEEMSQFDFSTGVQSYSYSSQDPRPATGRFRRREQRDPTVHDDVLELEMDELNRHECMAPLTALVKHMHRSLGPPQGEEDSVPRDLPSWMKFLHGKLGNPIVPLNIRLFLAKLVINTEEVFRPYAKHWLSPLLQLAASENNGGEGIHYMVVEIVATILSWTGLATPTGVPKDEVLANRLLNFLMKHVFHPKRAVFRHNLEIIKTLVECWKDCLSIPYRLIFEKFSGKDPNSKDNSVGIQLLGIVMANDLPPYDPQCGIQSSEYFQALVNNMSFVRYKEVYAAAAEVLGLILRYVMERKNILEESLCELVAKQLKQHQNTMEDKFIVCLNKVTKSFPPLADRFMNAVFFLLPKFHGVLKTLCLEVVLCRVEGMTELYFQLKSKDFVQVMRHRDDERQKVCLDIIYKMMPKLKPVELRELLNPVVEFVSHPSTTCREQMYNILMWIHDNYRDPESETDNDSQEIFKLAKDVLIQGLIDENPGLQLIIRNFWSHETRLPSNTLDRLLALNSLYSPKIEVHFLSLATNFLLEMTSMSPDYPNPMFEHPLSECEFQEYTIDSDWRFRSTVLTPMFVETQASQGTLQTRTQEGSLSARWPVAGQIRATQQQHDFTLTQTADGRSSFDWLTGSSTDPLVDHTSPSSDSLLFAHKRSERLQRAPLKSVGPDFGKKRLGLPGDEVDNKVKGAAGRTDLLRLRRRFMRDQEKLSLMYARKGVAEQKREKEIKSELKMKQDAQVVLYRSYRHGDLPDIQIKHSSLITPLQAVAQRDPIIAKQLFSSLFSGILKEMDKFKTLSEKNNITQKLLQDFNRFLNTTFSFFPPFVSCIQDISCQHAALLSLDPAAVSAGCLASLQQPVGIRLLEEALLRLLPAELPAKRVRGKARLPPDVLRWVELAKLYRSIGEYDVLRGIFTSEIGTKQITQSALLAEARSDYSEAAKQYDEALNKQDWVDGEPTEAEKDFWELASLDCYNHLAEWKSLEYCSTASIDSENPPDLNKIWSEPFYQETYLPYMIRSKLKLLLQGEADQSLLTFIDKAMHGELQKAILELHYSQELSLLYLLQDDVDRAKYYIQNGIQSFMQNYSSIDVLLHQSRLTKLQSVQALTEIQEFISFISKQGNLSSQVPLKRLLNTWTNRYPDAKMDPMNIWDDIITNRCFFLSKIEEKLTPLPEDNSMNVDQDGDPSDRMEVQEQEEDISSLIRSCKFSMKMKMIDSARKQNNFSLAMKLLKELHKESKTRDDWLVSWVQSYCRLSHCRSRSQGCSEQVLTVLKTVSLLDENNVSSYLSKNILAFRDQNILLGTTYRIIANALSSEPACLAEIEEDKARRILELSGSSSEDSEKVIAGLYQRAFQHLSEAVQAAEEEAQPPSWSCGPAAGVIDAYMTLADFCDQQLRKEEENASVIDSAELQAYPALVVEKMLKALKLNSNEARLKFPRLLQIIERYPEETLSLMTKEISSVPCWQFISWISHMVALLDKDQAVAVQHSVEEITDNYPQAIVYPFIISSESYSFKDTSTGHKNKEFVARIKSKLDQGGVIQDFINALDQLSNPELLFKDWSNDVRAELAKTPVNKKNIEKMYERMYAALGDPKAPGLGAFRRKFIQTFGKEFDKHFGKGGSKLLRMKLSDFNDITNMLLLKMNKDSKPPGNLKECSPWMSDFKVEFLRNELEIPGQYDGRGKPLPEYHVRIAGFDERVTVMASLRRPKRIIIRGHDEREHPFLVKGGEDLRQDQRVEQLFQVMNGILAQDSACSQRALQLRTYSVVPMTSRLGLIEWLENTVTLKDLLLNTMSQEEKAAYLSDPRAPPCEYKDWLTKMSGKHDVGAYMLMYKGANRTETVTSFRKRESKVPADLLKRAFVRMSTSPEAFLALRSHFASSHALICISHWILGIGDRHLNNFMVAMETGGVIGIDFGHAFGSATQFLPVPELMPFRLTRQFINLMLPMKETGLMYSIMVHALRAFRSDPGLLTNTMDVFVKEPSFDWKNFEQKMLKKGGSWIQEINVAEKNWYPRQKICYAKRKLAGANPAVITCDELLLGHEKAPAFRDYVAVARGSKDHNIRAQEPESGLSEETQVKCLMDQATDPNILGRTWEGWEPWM

[9] = target: T7, HeLa cell extract proteins (Homo sapiens, UniProt Q9UI30); assay type: binding
T7 construct: endogenous in cells; host or cells: HeLa cell extract
T7 sequence (Q9UI30 1-125): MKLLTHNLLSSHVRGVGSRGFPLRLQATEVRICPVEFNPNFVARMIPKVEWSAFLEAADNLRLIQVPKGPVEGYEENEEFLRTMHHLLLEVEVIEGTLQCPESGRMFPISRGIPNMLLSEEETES

[10] = target: T8, HeLa cell extract proteins (Homo sapiens, UniProt P39019); assay type: binding
T8 construct: endogenous in cells; host or cells: HeLa cell extract

[11] = target: T9, HeLa cell extract proteins (Homo sapiens, UniProt Q96T76); assay type: binding
T9 construct: endogenous in cells; host or cells: HeLa cell extract
T9 sequence (Q96T76 1-1030): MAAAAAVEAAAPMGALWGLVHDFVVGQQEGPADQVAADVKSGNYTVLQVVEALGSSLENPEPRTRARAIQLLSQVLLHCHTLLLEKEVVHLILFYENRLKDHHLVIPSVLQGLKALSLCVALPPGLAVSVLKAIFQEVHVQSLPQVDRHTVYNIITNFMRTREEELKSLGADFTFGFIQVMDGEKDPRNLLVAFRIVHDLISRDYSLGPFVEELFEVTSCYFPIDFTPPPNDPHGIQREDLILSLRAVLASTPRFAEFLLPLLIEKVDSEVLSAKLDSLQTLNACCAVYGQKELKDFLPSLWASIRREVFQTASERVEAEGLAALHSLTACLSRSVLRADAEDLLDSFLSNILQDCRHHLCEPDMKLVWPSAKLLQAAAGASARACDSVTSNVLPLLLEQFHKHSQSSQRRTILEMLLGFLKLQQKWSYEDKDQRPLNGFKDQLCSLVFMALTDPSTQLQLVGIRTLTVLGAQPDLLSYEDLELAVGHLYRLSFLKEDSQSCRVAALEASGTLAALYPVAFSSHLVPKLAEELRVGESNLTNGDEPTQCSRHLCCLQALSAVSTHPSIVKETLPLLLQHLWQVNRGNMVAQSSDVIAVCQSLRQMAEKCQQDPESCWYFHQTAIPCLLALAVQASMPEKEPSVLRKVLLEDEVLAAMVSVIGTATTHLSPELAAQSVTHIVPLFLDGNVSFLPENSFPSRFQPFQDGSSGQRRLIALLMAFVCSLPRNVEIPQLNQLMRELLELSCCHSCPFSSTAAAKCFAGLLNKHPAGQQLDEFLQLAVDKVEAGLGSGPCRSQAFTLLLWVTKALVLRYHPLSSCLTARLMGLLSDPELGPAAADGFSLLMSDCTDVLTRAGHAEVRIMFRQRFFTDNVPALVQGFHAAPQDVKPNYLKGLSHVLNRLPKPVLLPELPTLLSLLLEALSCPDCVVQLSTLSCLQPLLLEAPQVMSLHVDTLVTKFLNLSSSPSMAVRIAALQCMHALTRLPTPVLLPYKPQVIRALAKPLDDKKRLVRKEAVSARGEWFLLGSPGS

[12] = target: T10, HeLa cell extract proteins (Homo sapiens, UniProt Q14204); assay type: binding
T10 construct: endogenous in cells; host or cells: HeLa cell extract

[13] = target: T11, HeLa cell extract proteins (Homo sapiens, UniProt P53611); assay type: binding
T11 construct: endogenous in cells; host or cells: HeLa cell extract
T11 sequence (P53611 1-331): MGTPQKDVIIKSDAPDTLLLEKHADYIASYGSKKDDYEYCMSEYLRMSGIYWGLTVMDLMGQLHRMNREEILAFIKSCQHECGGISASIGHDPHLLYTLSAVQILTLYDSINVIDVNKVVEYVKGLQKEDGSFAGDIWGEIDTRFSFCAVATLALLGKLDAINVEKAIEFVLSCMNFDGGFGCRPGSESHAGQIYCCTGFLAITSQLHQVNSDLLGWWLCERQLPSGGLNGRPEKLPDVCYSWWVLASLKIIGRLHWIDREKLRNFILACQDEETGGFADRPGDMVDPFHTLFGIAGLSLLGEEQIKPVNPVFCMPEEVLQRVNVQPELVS

[14] = system: NGG1 INTERACTING FACTOR 3-LIKE (Tb427tmp.02.5000); assay type: binding; conditions: for fold change: vehicle control = 1
[15] = protein LMJF.06.0860, DIH[…]-T[…]
[16] = HeLa, protein PRKDC (ISOFORM 1 OF DNA-DEPENDENT PROTEIN KINASE CATALYTIC SUBUNIT)
[17] = HeLa, protein RPS19 (40S RIBOSOMAL PROTEIN S19)
[18] = protein TB427TMP.02.5000 NGG1 INTERACTING FACTOR 3-LIKE
[19] = protein TB427TMP.02.5000 NGG1 I[…] 3-LIKE

Compound	fold change vs vehicle control [1]	fold change [2]	fold change vs vehicle control [3]	fold changes relative to vehicle control ([6]; HeLa, protein SIGMAR1)	fold changes relative to vehicle control ([9]; HeLa, protein HSPC152)	fold change [14, 18]	fold change [14, 19]	fold change (DHFR-TS)	fold change [1]	fold changes relative to vehicle control (TS; captured protein TYMS, HeLa)	fold change - vehicle control [2]	fold change - vehicle control [3]	fold changes relative to vehicle control ([4]; protein GLUD1, HeLa)	fold changes relative to vehicle control ([5]; protein ANXA2, HeLa)	fold changes relative to vehicle control ([7]; protein PSMA6, HeLa)	fold changes relative to vehicle control ([8]; HeLa, protein PRKDC)	fold changes relative to vehicle control ([10]; protein RPS19, HeLa)	fold changes relative to vehicle control ([11]; captured protein MMS19, HeLa)	fold changes relative to vehicle control ([12]; protein DYNC1H1, HeLa)	fold changes relative to vehicle control ([13]; protein RABGGTB, HeLa)	further results
Nc1nc2c(c(=O)[nH]1)N(C=O)C(CNc1ccc(C(=O)N[C@@H](CCC(=O)O)C(=O)O)cc1)CN2 (stereo partly shown) [LEU, leucovorin]	1.15	1.01	0.95	1.04	1.17	0.98	–	–	–	–	–	–	–	–	–	–	–	–	–	–	fold change relative to vehicle control (DHFR-TS; [15]): 1.39; inhibition, TS (TS; bead mixture, HeLa cell extract): > 56%; fold changes relative to vehicle control (TS; protein TYMS, HeLa): 0.44; fold changes relative to vehicle control ([4]; HeLa, protein GLUD1): 1.06; fold changes relative to vehicle control ([5]; HeLa, protein ANXA2): 1; fold changes relative to vehicle control ([7]; HeLa, protein PSMA6): 1.02; fold changes relative to vehicle control [8, 16]: 1.05; fold changes relative to vehicle control [10, 17]: 1.12; fold changes relative to vehicle control ([11]; HeLa, protein MMS19): 0.87; fold changes relative to vehicle control ([12]; HeLa, captured protein DYNC1H1): 1.02; fold changes relative to vehicle control ([13]; HeLa, captured protein RABGGTB): 1.01
Nc1nc2[nH]cc(CCc3ccc(C(=O)N[C@@H](CCC(=O)O)C(=O)O)cc3)c2c(=O)[nH]1 [PTX, pemetrexed]	0.14	0.91	0.98	–	–	–	1.01	–	–	–	–	–	–	–	–	–	–	–	–	–	fold change relative to vehicle control (DHFR-TS): 1.08; association with glutamate 5′-kinase (LmjF.26.2710) ([1]; bead mixture, Leishmania lysates): strongly associated; fold changes relative to vehicle control (TS): 0.34; inhibition, TS (TS): > 56%; fold changes relative to vehicle control [4]: 1.01; fold changes relative to vehicle control [5]: 1.1; fold changes relative to vehicle control [6]: 0.99; fold changes relative to vehicle control [7]: 1; fold changes relative to vehicle control [8]: 1.06; fold changes relative to vehicle control [9]: 1.21; fold changes relative to vehicle control [10]: 1.11; fold changes relative to vehicle control [11]: 0.82; fold changes relative to vehicle control [12]: 0.99; fold changes relative to vehicle control [13]: 0.97
CCCCCCOc1ccc(Cc2cnc(N)nc2N)cc1 [compound 1]	–	–	–	0.99	0.96	–	1.08	0.17	1.07	0.76	0.93	1.05	1.09	1.18	1.1	1.01	0.98	0.79	1	1.07	competition for DHFR-TS (Figure 8a) (DHFR-TS; bead mixture, L. major lysate): competed for DHFR-TS
CCCCCCOc1cccc(Cc2cnc(N)nc2N)c1 [compound 2]	–	–	–	0.99	1.18	1.1	–	0.99	1.07	1.31	1.01	1.11	1.33	1.87	1.27	0.89	1.19	0.94	1.03	1.01	–
Nc1nc2cccc(-c3ccccc3)c2n1Cc1ccc(Cl)c(Cl)c1 [compound 3]	–	–	–	1.1	1.04	–	1.02	1.11	1.05	0.99	0.99	1	0.92	0.9	1.02	1.2	1.01	1.02	1.07	1.06	percentage of competition from bead binding ([2]; multitargeted bead mixture, free ligand 100 μM, T. brucei lysate, TB427.06.4300 GAPDH): 3%; percentage of competition from bead binding ([3]; multitargeted bead mixture, free ligand 100 μM, T. brucei lysate, TB427TMP.18.0017 CHOLINE KINASE): -1%; percentage of competition from bead binding ([14]; multitargeted bead mixture, free ligand 100 μM, T. brucei lysate, Tb427tmp.02.5000): -6%
NCCOCCOCC(=O)Nc1nc2ncc(CNc3ccc(C(=O)NC(CCC(=O)O)C(=O)O)cc3)nc2c(=O)[nH]1 (stereo not shown) [compound 6]	1.06	0.92	1.05	0.96	1.36	0.68	–	–	–	–	–	–	–	–	–	–	–	–	–	–	fold change relative to vehicle control (DHFR-TS; [15]): 1.19; fold changes relative to vehicle control (TS; protein TYMS, HeLa): 0.55; fold changes relative to vehicle control ([4]; HeLa, protein GLUD1): 1.07; fold changes relative to vehicle control ([5]; HeLa, protein ANXA2): 1.32; fold changes relative to vehicle control ([7]; HeLa, protein PSMA6): 1; fold changes relative to vehicle control [8, 16]: 1.17; fold changes relative to vehicle control [10, 17]: 1.1; fold changes relative to vehicle control ([11]; HeLa, protein MMS19): 0.97; fold changes relative to vehicle control ([12]; HeLa, captured protein DYNC1H1): 1.11; fold changes relative to vehicle control ([13]; HeLa, captured protein RABGGTB): 0.91

Source: paper PMC6199744, “Development of Chemical Proteomics for the Folateome and Analysis of the Kinetoplastid Folateome” (ACS Infectious Diseases, 2018)
